From publication PMC7659582 (Cell Reports Medicine, 2020)

Experiments:
[1] = FAERS disproportionality analysis; settings: for EB05 TdP / EB05 VA / EB05 VT: FAERS Nov 1997 to March 31, 2015, EB05 > 2 = signal; for EB05 TdP: torsades de pointes; for EB05 VA: ventricular arrhythmia; for EB05 VT: ventricular tachycardia; for EB05: Table 2, values correspond to EB05 TdP of Table 1
[2] = Incidence of cardiac dysrhythmia in Truven Health MarketScan claims data; assay type: in vivo, human; settings: for CD incidence / Incidence Rate per 1,000 Years: Table 2, MarketScan 2009-2014; for CD incidence: cardiac dysrhythmia cases; for Incidence Rate per 1,000 Years: cardiac dysrhythmia; for Delta from Background Rate: in vivo
[3] = cited from earlier work; for CredibleMeds: Table 2; for CredibleMeds Classification: Table 1, as of last access May 22, 2018
[4] = Table 1; cited from earlier work
[5] = biological target: hERG (Homo sapiens, UniProt Q12809)
Sequence of hERG (Q12809 whole entry): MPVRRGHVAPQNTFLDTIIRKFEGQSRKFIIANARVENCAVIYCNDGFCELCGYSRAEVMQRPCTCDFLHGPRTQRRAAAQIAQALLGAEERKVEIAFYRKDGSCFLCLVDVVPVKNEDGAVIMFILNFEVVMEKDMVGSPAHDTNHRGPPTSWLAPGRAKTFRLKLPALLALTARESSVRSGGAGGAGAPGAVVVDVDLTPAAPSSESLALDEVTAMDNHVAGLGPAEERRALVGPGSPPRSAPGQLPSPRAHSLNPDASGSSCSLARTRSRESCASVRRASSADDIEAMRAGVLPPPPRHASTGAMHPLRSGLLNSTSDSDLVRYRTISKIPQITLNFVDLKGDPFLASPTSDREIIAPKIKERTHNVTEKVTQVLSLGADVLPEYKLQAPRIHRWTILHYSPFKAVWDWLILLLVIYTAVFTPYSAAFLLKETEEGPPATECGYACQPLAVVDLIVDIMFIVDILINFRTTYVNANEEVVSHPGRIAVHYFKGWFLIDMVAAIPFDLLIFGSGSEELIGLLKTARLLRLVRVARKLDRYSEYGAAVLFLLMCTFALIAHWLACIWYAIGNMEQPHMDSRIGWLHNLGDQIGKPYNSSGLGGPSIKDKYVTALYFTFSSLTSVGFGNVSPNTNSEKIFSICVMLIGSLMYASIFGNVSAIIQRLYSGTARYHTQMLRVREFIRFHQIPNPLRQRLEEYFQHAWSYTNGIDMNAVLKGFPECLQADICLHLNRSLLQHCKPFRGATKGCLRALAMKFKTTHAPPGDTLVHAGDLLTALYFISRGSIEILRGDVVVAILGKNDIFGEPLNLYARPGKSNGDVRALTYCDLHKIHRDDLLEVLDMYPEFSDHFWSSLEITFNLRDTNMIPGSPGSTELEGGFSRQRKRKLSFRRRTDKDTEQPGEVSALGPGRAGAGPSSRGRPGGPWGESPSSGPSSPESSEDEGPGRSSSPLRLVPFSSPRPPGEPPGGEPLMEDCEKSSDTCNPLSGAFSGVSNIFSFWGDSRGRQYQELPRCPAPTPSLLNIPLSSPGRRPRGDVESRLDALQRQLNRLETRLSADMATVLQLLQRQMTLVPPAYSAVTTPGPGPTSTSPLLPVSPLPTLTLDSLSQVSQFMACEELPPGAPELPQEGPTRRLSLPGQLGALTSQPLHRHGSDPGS

| Structure (SMILES) | EB05 TdP [1] | EB05 VA [1] | EB05 VT [1] | CD incidence [2] | Incidence Rate per 1,000 Years [2] | Delta from Background Rate [2] | EB05 [1] | CredibleMeds [3] | CiPA Classification [4] | CredibleMeds Classification [3] | hERG IC50/Free Cmax Ratio [5] | rate of CD incidence, each patient subgroup ([2]; compared with the aggregated value, subgroups by age, gender, comorbidity index) |
| --- | --- | --- | --- | --- | --- | --- | --- | --- | --- | --- | --- | --- |
| COc1ccc(CCN(C)CCCC(C#N)(c2ccc(OC)c(OC)c2)C(C)C)cc1OC (centres unmarked) | 3.426 | 2.104 | 2.381 |  |  |  |  |  |  |  |  |  |
| CC(C)NCC(O)c1ccc(NS(C)(=O)=O)cc1 (racemic) [DL-SOTALOL] | 70.355 | 14.276 | 18.029 | 13,186 | 124.65 per 1,000 Years | 101.65 | 70.36 |  |  |  |  |  |
| CCCCc1oc2ccccc2c1C(=O)c1cc(I)c(OCCN(CC)CC)c(I)c1 [AMIODARONE] |  |  |  | 21,788 | 162.2 per 1,000 Years | 139.2 | 21.35 | risk of TdP |  |  |  |  |
| COc1ccc(CCN2CCC(Nc3nc4ccccc4n3Cc3ccc(F)cc3)CC2)cc1 [ASTEMIZOLE] | 18.549 | 1.965 | 15.499 |  |  |  |  |  | intermediate | risk of TdP |  |  |
| CN1CCN(CCCCN2C(=O)CN(/N=C/c3ccc(-c4ccc(Cl)cc4)o3)C2=O)CC1 [AZIMILIDE] | 94.351 |  | 1.381 |  |  |  |  |  | high |  | 11.50 |  |
| CC(C)COCC(CN(Cc1ccccc1)c1ccccc1)N1CCCC1 (centres unmarked) [BEPRIDIL] | 81.663 | 5.155 | 38.276 |  |  |  |  |  | high | risk of TdP |  |  |
| CN(C)CCCN1c2ccccc2Sc2ccc(Cl)cc21 [CHLORPROMAZINE] | 5.483 | 0.679 | 1.78 |  |  |  |  |  | intermediate | risk of TdP |  |  |
| COc1cc(N)c(Cl)cc1C(=O)NC1CCN(CCCOc2ccc(F)cc2)CC1OC (centres unmarked) [CISAPRIDE] | 30.654 | 5.117 | 21.801 |  |  |  |  |  | intermediate | risk of TdP |  |  |
| CC[C@H]1OC(=O)[C@H](C)[C@@H](O[C@H]2C[C@@](C)(OC)[C@@H](O)[C@H](C)O2)[C@H](C)[C@@H](O[C@@H]2O[C@H](C)C[C@H](N(C)C)[C@H]2O)[C@](C)(OC)C[C@@H](C)C(=O)[C@H](C)[C@@H](O)[C@]1(C)O [CLARITHROMYCIN] | 7.69 | 1.898 | 3.016 |  |  |  |  |  | intermediate | risk of TdP | 77.41 |  |
| CN1CCN(C2=Nc3cc(Cl)ccc3Nc3ccccc32)CC1 [CLOZAPINE] | 0.191 | 0.372 | 0.291 |  |  |  |  |  |  |  |  |  |
| CN(C)CC(c1ccc(O)cc1)C1(O)CCCCC1 (centres unmarked) [DESVENLAFAXINE] |  |  |  | 2,222 | 8.26 per 1,000 Years | −14.74 | 0.13 |  |  |  |  |  |
| COc1ccc([C@@H]2Sc3ccccc3N(CCN(C)C)C(=O)[C@@H]2OC(C)=O)cc1 [DILTIAZEM] | 2.62 | 0.925 | 1.443 |  |  |  |  |  |  |  |  |  |
| CN(CCOc1ccc(NS(C)(=O)=O)cc1)CCc1ccc(NS(C)(=O)=O)cc1 [DOFETILIDE] | 20.983 | 6.235 |  | 2,749 | 157.58 per 1,000 Years | 134.58 | 20.98 | risk of TdP |  |  |  |  |
| O=c1[nH]c2ccccc2n1CCCN1CCC(n2c(=O)[nH]c3cc(Cl)ccc32)CC1 [DOMPERIDONE] | 18.85 | 1.455 | 1.468 |  |  |  |  |  |  |  |  |  |
| O=C(CCCN1CC=C(n2c(=O)[nH]c3ccccc32)CC1)c1ccc(F)cc1 [DROPERIDOL] | 19.454 | 2.899 | 4.564 |  |  |  |  |  | intermediate | risk of TdP |  |  |
| O=C(NCC1CCCCN1)c1cc(OCC(F)(F)F)ccc1OCC(F)(F)F (centres unmarked) [FLECAINIDE] |  | 4.123 | 20.567 |  |  |  |  |  |  |  |  | > 23.0 |
| CCCCCCCN(CC)CCCC(O)c1ccc(NS(C)(=O)=O)cc1 (centres unmarked) [IBUTILIDE] | 218.45 | 2.901 | 101.022 |  |  |  |  |  | high | risk of TdP |  |  |

| Structure (SMILES) | EB05 TdP [1] | EB05 VA [1] | EB05 VT [1] | CD incidence [2] | Incidence Rate per 1,000 Years [2] | Delta from Background Rate [2] | EB05 [1] | CredibleMeds [3] | CiPA Classification [4] | CredibleMeds Classification [3] | hERG IC50/Free Cmax Ratio [5] | rate of CD incidence, each patient subgroup ([2]; compared with the aggregated value, subgroups by age, gender, comorbidity index) |
| --- | --- | --- | --- | --- | --- | --- | --- | --- | --- | --- | --- | --- |
| CCOC(=O)N1CCC(=C2c3ccc(Cl)cc3CCc3cccnc32)CC1 [LORATADINE] | 4.873 | 0.583 | 3.043 | 2,016 | 13.07 per 1,000 Years | −9.93 | 4.87 |  | very low |  |  |  |
| CCC(=O)C(CC(C)N(C)C)(c1ccccc1)c1ccccc1 (centres unmarked) [METHADONE] | 36.408 | 1.87 | 3.998 | 1,662 | 19.73 per 1,000 Years | −3.27 | 36.41 | risk of TdP |  |  |  |  |
| COCCc1ccc(OCC(O)CNC(C)C)cc1 (centres unmarked) [METOPROLOL] | 3.176 | 1.955 | 3.318 |  |  |  |  |  |  |  |  |  |
| Cc1cccc(C)c1OCC(C)N (centres unmarked) [MEXILETINE] |  |  |  | 1,250 | 280.45 per 1,000 Years | 257.45 | 2.65 |  | very low |  | 130.11 |  |
| COC(=O)C1=C(C)NC(C)=C(C(=O)OC)C1c1ccccc1[N+](=O)[O-] [NIFEDIPINE] |  |  | 0.42 |  |  |  |  |  |  |  |  |  |
| CCOC(=O)C1=C(C)NC(C)=C(C(=O)OC)C1c1cccc([N+](=O)[O-])c1 (centres unmarked) [NITRENDIPINE] | 0.618 |  | 0.228 |  |  |  |  |  | very low |  | 50345 |  |
| Cc1nccn1CC1CCc2c(c3ccccc3n2C)C1=O (centres unmarked) [ONDANSETRON] | 15.333 | 1.281 | 6.395 |  |  |  |  |  | intermediate | risk of TdP |  |  |
| Cc1nc2n(c(=O)c1CCN1CCC(c3noc4cc(F)ccc34)CC1)CCCC2O (centres unmarked) [PALIPERIDONE] |  |  |  | 119 | 10.13 per 1,000 Years | −12.87 | 0.57 | possible risk of TdP |  |  |  |  |
| O=c1[nH]c2ccccc2n1C1CCN(CCCC(c2ccc(F)cc2)c2ccc(F)cc2)CC1 [PIMOZIDE] | 17.093 | 0.25 | 2.332 |  |  |  |  |  | intermediate | risk of TdP |  |  |
| CCCNCC(O)COc1ccccc1C(=O)CCc1ccccc1 (centres unmarked) [PROPAFENONE] |  |  |  | 6,643 | 135.17 per 1,000 Years | 112.17 | 3.38 |  |  |  |  |  |
| C=C[C@H]1C[N@@]2CC[C@H]1C[C@@H]2[C@@H](O)c1ccnc2ccc(OC)cc12 [QUINIDINE] | 35.667 | 2.768 | 12.296 | 421 | 87.75 per 1,000 Years | 64.75 | 35.67 | risk of TdP |  |  |  |  |
| COc1ccccc1OCC(O)CN1CCN(CC(=O)Nc2c(C)cccc2C)CC1 (centres unmarked) [RANOLAZINE] | 22.444 | 0.205 | 4.375 |  |  |  |  |  | very low | conditional risk of TdP |  |  |
| Cc1nc2n(c(=O)c1CCN1CCC(c3noc4cc(F)ccc34)CC1)CCCC2 [RISPERIDONE] | 1.257 | 0.543 | 0.706 | 4,066 | 18.47 per 1,000 Years | −4.53 | 1.26 | possible risk of TdP | intermediate | possible risk of TdP |  |  |
| CC/C(=C(\c1ccccc1)c1ccc(OCCN(C)C)cc1)c1ccccc1 [TAMOXIFEN] | 0.077 | 0.06 | 0.172 |  |  |  |  |  |  |  |  |  |
| CC(C)(C)c1ccc(C(O)CCCN2CCC(C(O)(c3ccccc3)c3ccccc3)CC2)cc1 (centres unmarked) [TERFENADINE] | 24.417 | 3.085 | 9.397 |  |  |  |  |  | intermediate | risk of TdP |  |  |
| COc1cc2c(Nc3ccc(Br)cc3F)ncnc2cc1OCC1CCN(C)CC1 [VANDETANIB] | 0.546 |  |  |  |  |  |  |  | high | risk of TdP |  |  |
